# Data from US20240366739A1, “MEDICAMENT FOR TREATMENT AND/OR PREVENTION OF CANCER” (TORAY INDUSTRIES, INC., priority 2021, published 2024).
# System: mouse lymphoma cell line EG7 (OVA-expressing cancer cells) subcutaneously transplanted
# Test: in vivo antitumor effect in cancer-bearing mice (tumor volume measured with calipers)
# Conditions: Example 6; C57BL/6NCR mice with EG7 tumors; particle 0.5 mg s.c. once a week x2 from day 7; Poly(I:C) 50 μg into tumors twice a week x4; mixture given s.c.
substance,measurement,value
Poly(I:C),tumor growth / regression (tumor volume),not changed compared to negative controls
